Residue numbers refer to the chain shown, from its start. Values belong to the compound of their own block, whether it stands above or below them.
Columns and labels:
[1] = molecular target: T1, progesterone receptor (PRB) (Homo sapiens, UniProt P06401); test: Progestogen activity assay using progesterone receptor transactivation; assay type: cell-based; details: unpublished data, conditions not given
T1 construct: expressed in transfected cells; host or cells: COS 7
T1 sequence (P06401 1-933): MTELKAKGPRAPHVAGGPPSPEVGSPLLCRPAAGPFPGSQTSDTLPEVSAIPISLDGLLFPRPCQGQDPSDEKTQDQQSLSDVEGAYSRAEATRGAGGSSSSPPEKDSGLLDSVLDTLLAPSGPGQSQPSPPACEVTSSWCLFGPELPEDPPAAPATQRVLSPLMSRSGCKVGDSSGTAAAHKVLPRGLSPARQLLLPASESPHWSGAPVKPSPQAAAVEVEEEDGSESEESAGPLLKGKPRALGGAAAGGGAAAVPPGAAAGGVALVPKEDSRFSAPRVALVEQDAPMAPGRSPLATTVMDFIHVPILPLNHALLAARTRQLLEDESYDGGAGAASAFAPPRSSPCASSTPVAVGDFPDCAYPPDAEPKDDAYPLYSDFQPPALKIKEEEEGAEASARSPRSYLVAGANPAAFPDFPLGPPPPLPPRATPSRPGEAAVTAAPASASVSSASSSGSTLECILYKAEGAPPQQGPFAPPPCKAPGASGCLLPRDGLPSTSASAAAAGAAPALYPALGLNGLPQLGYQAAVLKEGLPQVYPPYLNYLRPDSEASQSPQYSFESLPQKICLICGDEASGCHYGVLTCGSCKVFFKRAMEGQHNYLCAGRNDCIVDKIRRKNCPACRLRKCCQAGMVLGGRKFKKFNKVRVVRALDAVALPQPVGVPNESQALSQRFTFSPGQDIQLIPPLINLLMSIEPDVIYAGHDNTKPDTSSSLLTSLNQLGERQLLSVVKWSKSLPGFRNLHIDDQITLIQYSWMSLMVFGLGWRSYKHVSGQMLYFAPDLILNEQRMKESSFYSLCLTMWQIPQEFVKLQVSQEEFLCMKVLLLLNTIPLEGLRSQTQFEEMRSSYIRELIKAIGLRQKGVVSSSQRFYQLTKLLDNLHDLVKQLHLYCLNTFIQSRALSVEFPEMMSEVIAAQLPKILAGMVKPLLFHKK

[2] = tested on: CEM-C7A cells; test: Apoptosis assay in CEM-C7A cells (viable cell count, MTS); assay type: cell-based, human
Method: The CEM-C7A cell line is a steroid sensitive clone of the CCRF-CEM cell line (ECACC 85112105). This is a T lymphoblastoid cell line with functional endogenous GR.
Apoptosis (programmed cell death) is mediated by a protein called Bax the transcription of which is primarily controlled by the GR in a ligand dependant manner. To measure the ability of a GR ligand to effect apoptosis a suitable cell line was incubated with ligand and a viable cell count was performed after three days.
CEM-C7A cells were plated out on to a 96well plate at 5×10^5/well. The steroids of FIGS. 1 and 2A were added immediately to generate a final concentration of 100 nM. After a three day incubation the live cell number in each well was assessed using Celltiter 96 Aqueous Non-Radioactive Cell Proliferation Assay (Promega). This assay is a calorimetric method for determining the number of viable cells in proliferation or chemosensitivity assays.
Briefly, the assay is composed of solutions of a novel tetrazolium compound (3-(4,5-dimethylthiazol-2-yl)-5-(3-carboxymethoxyphenyl)-2-(4-sulfophenyl)-2H-tetrazolium, MTS) and an electron coupling reagent (phenazine methosulfate; PMS). MTS is bioreduced by cells into a formazan product that is soluble in tissue culture medium. The absorbance of the formazan at 490 nm can be measured directly from 96 well assay plates without additional processing. The conversion of MTS into aqueous, soluble formazan is accomplished by dehydrogenase enzymes found in metabolically active cells. The quantity of formazan product as measured by the amount of 490 nm absorbance is directly proportional to the number of living cells in culture.

[3] = cited from earlier work
[4] = molecular target: T2, glucocorticoid receptor (Homo sapiens, UniProt P04150); design: expressed in transfected cells; host or cells: COS 7 (African green monkey kidney, deficient in endogenous GR); details: in-vitro, other investigators; cited from earlier work
T2 sequence (P04150 1-777): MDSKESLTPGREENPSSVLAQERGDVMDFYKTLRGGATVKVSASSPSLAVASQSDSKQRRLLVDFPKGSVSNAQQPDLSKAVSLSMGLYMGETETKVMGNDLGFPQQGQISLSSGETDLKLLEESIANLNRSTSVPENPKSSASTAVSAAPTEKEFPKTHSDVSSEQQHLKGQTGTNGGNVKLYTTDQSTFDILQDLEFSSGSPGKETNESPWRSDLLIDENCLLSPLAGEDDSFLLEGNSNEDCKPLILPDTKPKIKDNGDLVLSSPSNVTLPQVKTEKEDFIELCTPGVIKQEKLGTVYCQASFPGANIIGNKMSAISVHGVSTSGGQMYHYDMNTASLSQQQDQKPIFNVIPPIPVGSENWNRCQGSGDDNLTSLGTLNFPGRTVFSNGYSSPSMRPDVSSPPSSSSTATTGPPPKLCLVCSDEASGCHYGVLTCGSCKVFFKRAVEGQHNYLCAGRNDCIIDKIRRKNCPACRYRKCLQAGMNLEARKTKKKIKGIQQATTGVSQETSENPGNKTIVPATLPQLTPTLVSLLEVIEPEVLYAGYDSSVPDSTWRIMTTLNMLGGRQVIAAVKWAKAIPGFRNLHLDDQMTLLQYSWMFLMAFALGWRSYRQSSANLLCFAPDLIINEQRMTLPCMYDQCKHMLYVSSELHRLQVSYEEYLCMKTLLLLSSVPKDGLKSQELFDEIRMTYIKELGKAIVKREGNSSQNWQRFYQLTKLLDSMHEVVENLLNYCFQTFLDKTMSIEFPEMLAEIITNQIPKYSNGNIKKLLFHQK

[5] = molecular target: T3, GR Tyr735val (Homo sapiens, UniProt P04150, Y735V); test: Transactivation of the MMTV promoter by mutant GR Tyr735val; assay type: cell-based; details: 100 nM
T3 construct: expressed in transfected cells
T3 sequence (P04150 1-777 Y735V): T2 sequence (P04150 1-777) with Y735V

[6] = molecular target: T4, GR Tyr735ser (Homo sapiens, UniProt P04150, Y735S); test: Transactivation of the MMTV promoter by mutant GR Tyr735ser; assay type: cell-based; details: 100 nM
T4 construct: expressed in transfected cells
T4 sequence (P04150 1-777 Y735S): T2 sequence (P04150 1-777) with Y735S

[7] = molecular target: T5, GR Tyr735phe (Homo sapiens, UniProt P04150, Y735F); test: Transactivation of the MMTV promoter by mutant GR Tyr735phe; assay type: cell-based; details: 100 nM
T5 construct: expressed in transfected cells
T5 sequence (P04150 1-777 Y735F): T2 sequence (P04150 1-777) with Y735F

[8] = molecular target: T6, wild-type GR (Homo sapiens, UniProt P04150); test: Transactivation of the MMTV promoter by wild-type GR; assay type: cell-based; details: 100 nM
T6 construct: expressed in transfected cells
T6 sequence (P04150 1-777): T2 sequence (P04150 1-777)

activation of the progesterone receptor [1]: activating the progesterone receptor
SMILES: C[C@@H]1C[C@H]2[C@@H]3CCC4=CC(=O)C=C[C@]4(C)[C@@]3(F)[C@@H](O)C[C@]2(C)[C@H]1C(=O)CC#N [RU24858, reference compound]
effect on proliferation ([2]; CEM C7A cells): impaired proliferation
induction of apoptosis ([2]; CEM C7A cells, 100 nM, three day incubation): did not induce significant apoptosis
induction of apoptosis ([2]; unpublished data, conditions not given): does not induce apoptosis
desired profile in-vivo [3]: failed to show the desired profile in-vivo
selectivity for transrepression over transactivation [4]: 2 fold

SMILES: C[C@]12CCC(=O)C=C1CC[C@@H]1[C@@H]2[C@@H](O)C[C@@]2(C)[C@H]1CC[C@]2(O)C(=O)CO [hydrocortisone]
induction of MMTV [5]: 10.6 fold
induction of MMTV [6]: failed to induce the reporter
induction of MMTV [7]: 11 fold
induction of MMTV [8]: 18 fold

From patent US7763596B2, “Selective glucocorticoid receptor agonists” (The University of Manchester, priority 2000, dated 2010)
